Test results: PubChem BioAssay (NCI)
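Grown in 96-well plates, cells were treated for 48 hours with each compound at five concentrations. Insufficient inhibition: endpoint recorded as highest concentration tested. GI50: concentration for 50% inhibition of growth. TGI: concentration producing complete growth inhibition.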

Tests used:
Assay in all cases: NCI tumour cell line growth inhibition, 48 h
HCC-2998 colon = system: HCC-2998 colon
NCI/ADR-RES ovarian = system: NCI/ADR-RES ovarian
HCT-15 colon = system: HCT-15 colon
SN12C renal = system: SN12C renal
U251 CNS = system: U251 CNS
SW-620 colon = system: SW-620 colon
EKVX NSCLC = system: EKVX NSCLC
MALME-3M melanoma = system: MALME-3M melanoma
NCI-H460 lung = system: NCI-H460 lung
HL-60(TB) leukemia = system: HL-60(TB) leukemia

SMILES	TGI (HCC-2998 colon)	TGI (NCI/ADR-RES ovarian)	TGI (HCT-15 colon)	TGI (SN12C renal)	TGI (U251 CNS)	TGI (SW-620 colon)	TGI (EKVX NSCLC)	TGI (MALME-3M melanoma)	TGI (NCI-H460 lung)	TGI (HL-60(TB) leukemia)	GI50 (HCC-2998 colon)	GI50 (NCI/ADR-RES ovarian)	GI50 (MALME-3M melanoma)	GI50 (NCI-H460 lung)	GI50 (HCT-15 colon)	GI50 (SN12C renal)	GI50 (SW-620 colon)	GI50 (EKVX NSCLC)	GI50 (U251 CNS)
CCCCI(O)OS(=O)(=O)c1ccc(C)cc1	> 100 µM	> 100 µM	> 100 µM	> 100 µM	> 100 µM	> 100 µM	> 100 µM	–	–	–	–	–	–	–	–	–	–	–	–
COc1ccc(CNc2cnc3ccc(N)cc3n2)cc1	> 100 µM	–	> 100 µM	> 100 µM	–	> 100 µM	> 100 µM	> 100 µM	> 100 µM	> 100 µM	–	–	–	–	–	–	–	–	–
CN(/N=C1\C(=O)Nc2ccccc21)c1ccccc1	> 100 µM	–	> 100 µM	–	> 100 µM	> 100 µM	> 100 µM	> 100 µM	> 100 µM	> 100 µM	–	–	–	–	–	–	–	–	–
COC(=O)CC(=O)OSc1ccccc1	95 µM	–	–	27.1 µM	24.1 µM	38.4 µM	89.2 µM	> 100 µM	> 100 µM	–	–	–	–	–	–	–	–	–	–
OCc1cn(Cc2ccccc2)c2ccccc12	–	42.4 µM	31.4 µM	> 46.8 µM	60.6 µM	> 100 µM	> 100 µM	19.5 µM	35.8 µM	> 83.2 µM	–	–	–	–	–	–	–	–	–
O=c1[nH]c(NCc2ccncc2)nc2nc[nH]c12	> 100 µM	> 100 µM	> 100 µM	> 100 µM	> 100 µM	> 100 µM	> 100 µM	> 100 µM	> 100 µM	–	–	–	–	–	–	–	–	–	–
COCOc1ccc(C(=O)Oc2cccc3c2OC(C)(C)O3)c(OCOC)c1	> 100 µM	> 100 µM	> 100 µM	> 100 µM	> 100 µM	> 100 µM	> 100 µM	–	> 100 µM	19 µM	–	–	–	–	–	–	–	–	–
Cc1ccccc1-c1nc2c(N)nc(N)nc2nc1N	> 100 µM	> 100 µM	> 100 µM	> 100 µM	> 100 µM	> 100 µM	> 100 µM	–	> 100 µM	> 100 µM	–	–	–	–	–	–	–	–	–
O=C(c1ccco1)N(C(=O)N1CCCCC1)c1ccccc1	–	> 100 µM	> 100 µM	> 100 µM	> 100 µM	> 100 µM	> 100 µM	> 100 µM	–	> 100 µM	–	–	–	–	–	–	–	–	–
Cc1nnc2n(c1=O)CCCN2C	> 100 µM	–	> 100 µM	> 100 µM	> 100 µM	> 100 µM	> 100 µM	> 100 µM	> 100 µM	> 100 µM	–	–	–	–	–	–	–	–	–
c1ccc2c(c1)SCCCS2	> 100 µM	> 100 µM	> 100 µM	> 100 µM	> 100 µM	> 100 µM	> 100 µM	–	> 100 µM	> 100 µM	–	–	–	–	–	–	–	–	–
C[C@@H]1CC[C@@]2(C)C(C(=O)O)=CCCC2[C@@]1(C)CC(=O)c1ccoc1 (stereo partly specified)	–	> 25 µM	> 25 µM	> 25 µM	> 25 µM	> 25 µM	> 25 µM	–	> 25 µM	> 25 µM	–	–	–	–	–	–	–	–	–
COC(=O)[C@]1(C)CCC[C@@]2(C)C1CC[C@]13C=C(C(C)C)[C@H](CC21)CC3(Cl)C#N (stereo partly specified)	> 100 µM	> 100 µM	> 100 µM	> 100 µM	49.4 µM	> 100 µM	77.3 µM	89.7 µM	> 100 µM	–	–	–	–	–	–	–	–	–	–
O=[N+]([O-])c1ccc(C[P+]2(c3ccccc3)CCCCC2)cc1	> 100 µM	–	> 100 µM	> 100 µM	> 100 µM	> 100 µM	> 100 µM	> 100 µM	> 100 µM	> 100 µM	–	–	–	–	–	–	–	–	–
COc1ccc(C)cc1N1C(=O)C2ON(Cc3ccc(CC(N)=O)cc3)C(c3c4ccccc4c(Cl)c4ccccc34)C2C1=O (stereo unspecified)	–	76.9 µM	73.3 µM	45.7 µM	60.4 µM	> 100 µM	98 µM	> 100 µM	36.6 µM	> 100 µM	–	–	–	–	–	–	–	–	–
CC(C)Oc1cccc(N2C(n3ccnc3)=Nc3ccncc3S2(=O)=O)c1	31 µM	62 µM	32.7 µM	29.2 µM	28.8 µM	40.1 µM	30.4 µM	26.6 µM	37.4 µM	–	–	–	–	–	–	–	–	–	–
CN(C)c1ccc(/C=C(\NC(=O)c2ccccc2)C(=O)NC(CC(=O)O)C(=O)O)cc1 (stereo unspecified)	> 100 µM	> 100 µM	> 100 µM	> 100 µM	> 100 µM	> 100 µM	> 100 µM	–	> 100 µM	> 100 µM	–	–	–	–	–	–	–	–	–
COc1cc2ccc3c4cc(OC)c(OC)cc4c[n+](C)c3c2cc1O	> 100 µM	–	> 100 µM	43 µM	> 87.9 µM	> 100 µM	> 100 µM	> 100 µM	> 86.7 µM	> 100 µM	–	–	–	–	–	–	–	–	–

SMILES	TGI (HCC-2998 colon)	TGI (NCI/ADR-RES ovarian)	TGI (HCT-15 colon)	TGI (SN12C renal)	TGI (U251 CNS)	TGI (SW-620 colon)	TGI (EKVX NSCLC)	TGI (MALME-3M melanoma)	TGI (NCI-H460 lung)	TGI (HL-60(TB) leukemia)	GI50 (HCC-2998 colon)	GI50 (NCI/ADR-RES ovarian)	GI50 (MALME-3M melanoma)	GI50 (NCI-H460 lung)	GI50 (HCT-15 colon)	GI50 (SN12C renal)	GI50 (SW-620 colon)	GI50 (EKVX NSCLC)	GI50 (U251 CNS)
CN(C)C(=O)C(F)(F)C(c1ccc(F)cc1)C1C(=O)N(C)C(=O)N(C)C1=O (stereo unspecified)	> 100 µM	> 100 µM	> 100 µM	–	> 100 µM	> 100 µM	> 100 µM	–	> 100 µM	–	–	–	–	–	–	–	–	–	–
CC1=NN(C(=O)Cc2ccccc2)C(=O)/C1=C\c1ccc(O)cc1	> 100 µM	–	> 100 µM	> 100 µM	> 100 µM	> 100 µM	> 100 µM	> 100 µM	> 100 µM	> 100 µM	–	–	–	–	–	–	–	–	–
CCCCCCCCCCCCCCCCCCOc1ccccc1CC(=O)NCC[N+]1(C)CCOCC1	7.09 µM	56.8 µM	66.5 µM	6.21 µM	–	22.5 µM	56.2 µM	> 100 µM	17.4 µM	–	2.08 µM	18.3 µM	4.48 µM	3.31 µM	17.1 µM	2.26 µM	3.76 µM	8.62 µM	–
COc1cccc(C2c3cc4c(cc3OC(O)C2C)OCO4)c1OC (stereo unspecified)	46 µM	–	> 100 µM	64 µM	40.2 µM	54 µM	78.7 µM	32.9 µM	25.1 µM	4.83 µM	–	–	–	–	–	–	–	–	–
N#CNC(N)=NCc1ccccc1	> 100 µM	–	> 100 µM	> 100 µM	> 100 µM	–	–	> 100 µM	> 100 µM	> 100 µM	–	–	–	–	–	–	–	–	–
CC1CC(N2CCOCC2)=Nc2ccccc2N1C (stereo unspecified)	–	> 100 µM	> 100 µM	> 100 µM	> 100 µM	> 100 µM	> 100 µM	> 100 µM	> 100 µM	> 100 µM	–	–	–	–	–	–	–	–	–
Cc1cc([N+](=O)[O-])c(C)c2c1[nH]c1ccc(Cl)cc12	> 100 µM	–	> 100 µM	> 100 µM	–	> 100 µM	> 100 µM	> 100 µM	> 100 µM	> 100 µM	–	–	–	–	–	–	–	–	–
Cn1nc(-c2ccc(S(=O)(=O)/N=C(\NN)Nc3ccc(Cl)cc3)s2)cc1C(F)(F)F	–	50.7 µM	47.5 µM	31.4 µM	28.3 µM	36.9 µM	28.2 µM	–	37.9 µM	22.6 µM	–	–	–	–	–	–	–	–	–
O=C(/C=C/c1ccc(Cl)cc1)Oc1ccc(C=C2CCC/C(=C\c3ccc(OC(=O)/C=C/c4ccc(Cl)cc4)cc3)C2=O)cc1	> 100 µM	> 100 µM	> 100 µM	> 100 µM	> 100 µM	> 100 µM	> 100 µM	> 100 µM	> 100 µM	–	–	–	–	–	–	–	–	–	–
COc1cc2nc(-c3ccc(Cl)cc3)cc(OCCCN3CCOCC3)c2cc1OC	–	> 100 µM	–	> 100 µM	> 100 µM	> 100 µM	> 100 µM	–	> 100 µM	–	–	1.15 µM	–	0.958 µM	–	1.3 µM	3.57 µM	1.73 µM	1.92 µM
c1c[nH]c(-c2cccc3nsnc23)c1	> 100 µM	> 100 µM	> 100 µM	> 100 µM	> 100 µM	> 100 µM	> 100 µM	> 100 µM	> 100 µM	–	–	–	–	–	–	–	–	–	–
COc1cc(C)c(CC/C(C)=C/Cc2cc(O)ccc2O)c(C)c1C	> 25 µM	–	> 25 µM	> 25 µM	> 25 µM	> 25 µM	> 25 µM	> 25 µM	> 25 µM	> 25 µM	–	–	–	–	–	–	–	–	–
CCOC(=O)c1c(N2CCCC2)[nH]c(=O)c(C(c2ccc(OC)cc2)c2c(O)c(C(=O)OCC)c(N3CCCC3)[nH]c2=O)c1O	> 100 µM	> 100 µM	> 100 µM	> 100 µM	> 100 µM	> 100 µM	> 100 µM	> 100 µM	> 100 µM	–	–	–	–	–	–	–	–	–	–
Cc1nc(N)c(N2CCN(C#N)CC2)c(=O)[nH]1	> 100 µM	> 100 µM	> 100 µM	> 100 µM	> 100 µM	> 100 µM	> 100 µM	> 100 µM	> 100 µM	–	–	–	–	–	–	–	–	–	–
CCOC(=O)C1C(c2ccc(Cl)cc2Cl)NC(c2ccc(C)cc2)C(C(=O)OC)S1(=O)=O (stereo unspecified)	> 100 µM	–	> 100 µM	–	> 100 µM	> 100 µM	> 100 µM	> 100 µM	> 100 µM	> 100 µM	–	–	–	–	–	–	–	–	–
CCOC(=O)/C=C/c1nc(C#N)c(N)o1	–	–	> 100 µM	> 100 µM	> 100 µM	> 100 µM	> 100 µM	–	–	> 100 µM	–	–	–	–	–	–	–	–	–
CC(=O)NNc1nc(C)c(C(=O)NNC(=O)C(=O)Nc2ccc([N+](=O)[O-])cc2[N+](=O)[O-])s1	> 100 µM	–	> 100 µM	> 100 µM	> 100 µM	> 100 µM	> 100 µM	–	> 100 µM	> 100 µM	–	–	–	–	–	–	–	–	–
